The values below come from BindingDB's records for patent US20240025883 (Hoffmann-La Roche, 2024).

The target of this assay is Uracil nucleotide/cysteinyl leukotriene receptor (Homo sapiens, UniProt Q13304). Put plainly: GPR17 cAMP Assay Protocol. The protocol: GPR17 cAMP Assay Protocol: CHO-K1 cells stably expressing vector containing untagged human GPR17 short isoform (Roche) were cultured at 37° C./5% CO2 in DMEM (Dulbecco's Modified Eagle Medium):F-12 (1:1) supplemented with 10% foetal bovine serum and 400 μg/ml Geneticin. Changes in intracellular cyclic adenosine monophosphate (cAMP) levels were quantified using the Nano-TRF Detection Assay kit (Roche Diagnostics, Cat. No. 05214386001). This assay allows for direct cAMP quantification in a homogeneous solution, cAMP is detected based on time-resolved fluorescence energy transfer (TR-FRET) and competitive binding of ruthenylated cAMP and endogenous cAMP to an anti-cAMP monoclonal antibody labeled with AlexaFluor-700. The Ruthenium complex serves as the FRET donor and transfers energy to AlexaFluor-700. The FRET signal is inversely proportional to the cAMP concentration. CHO-GPR17S cells were detached with Accutase and resuspended in assay buffer consisting of Hank's Balanced Salt Solution (HBSS), 10 mM HEPES (4-(2-hydroxyethyl) piperazine-1-ethanesulfonic acid solution) and 0.1% bovine serum albumin (pH 7.4). The cells were seeded in black 384-well plates (Corning) at a density of 10,000 cells/20 μl assay buffer until the addition of compounds.
Uracil nucleotide/cysteinyl leukotriene receptor, sequence (Q13304 whole entry, canonical isoform): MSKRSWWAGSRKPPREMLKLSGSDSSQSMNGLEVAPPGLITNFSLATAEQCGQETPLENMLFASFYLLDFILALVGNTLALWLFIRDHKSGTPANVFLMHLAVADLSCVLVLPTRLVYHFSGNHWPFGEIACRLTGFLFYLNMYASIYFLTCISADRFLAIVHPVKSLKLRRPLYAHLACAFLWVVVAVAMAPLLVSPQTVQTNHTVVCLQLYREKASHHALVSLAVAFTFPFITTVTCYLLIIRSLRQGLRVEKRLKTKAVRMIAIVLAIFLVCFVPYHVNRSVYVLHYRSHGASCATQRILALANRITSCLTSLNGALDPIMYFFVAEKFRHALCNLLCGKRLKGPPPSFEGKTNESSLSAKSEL
Take `COc1nc(NS(=O)(=O)c2c[nH]c3nc(C(F)F)ccc23)nc(OC)c1OC(F)(F)CF` [US20240025883, Example 97]: the IC50 (usually the midpoint of a concentration-inhibition curve) was determined as 50 nM.
In the case of `COc1nc(NS(=O)(=O)c2c[nH]c3nc(C(F)F)ccc23)nc(OC)c1OCCF` [US20240025883, Example 95], the midpoint of inhibition, the IC50, lay at 68 nM.
`COc1nc(NS(=O)(=O)c2c[nH]c3c(C#N)c(Cl)ccc23)nc(OC)c1OCC(F)F` [US20240025883, Example 226] yielded a half-maximal inhibitory concentration (IC50) of 35 nM.
The molecule `COc1nc(NS(=O)(=O)c2c[nH]c3cc(SC)ccc23)ncc1CC(F)F` [US20240025883, Example 193] returned an IC50 of 96 nM.
`COc1nc(NS(=O)(=O)c2c[nH]c3nc(C(F)F)ccc23)nc(OC)c1OCC(F)F` [US20240025883, Example 96] registered an IC50 of 29 nM.
In turn, `COc1nc(NS(=O)(=O)c2c[nH]c3cc(C(F)F)ccc23)nc(OC)c1OCC(F)F` [US20240025883, Example 102] had an IC50 of 14 nM.
`COc1nc(NS(=O)(=O)c2c[nH]c3c(C#N)c(Cl)ccc23)nc(OC)c1CC(F)F` [US20240025883, Example 227]: the IC50 was found to be 22 nM.
`COc1nc(NS(=O)(=O)c2c[nH]c3cc(Cl)ccc23)nc(OC)c1OC(F)(F)CF` [US20240025883, Example 55] gave an IC50 of 17 nM.
With `COc1nc(NS(=O)(=O)c2c[nH]c3cc(Cl)ccc23)nc(OC)c1OCC(F)F` [US20240025883, Example 54], it took 17 nM to reach half-maximal inhibition (IC50).
Under `COc1nc(NS(=O)(=O)c2c[nH]c3cc(F)ccc23)nc(OC)c1OC(F)(F)CF` [US20240025883, Example 87] stands 66 nM.
Molecule `COc1nc(NS(=O)(=O)c2c[nH]c3c4c(ccc23)COC4)ncc1CC(F)F` [US20240025883, Example 228] registered an IC50 of 161 nM.
The figure for `COc1nc(NS(=O)(=O)c2c[nH]c3c(C#N)c(Cl)ccc23)nc(OC)c1OCCF` [US20240025883, Example 225] is 32 nM.
